In general, EC50 refers to the concentration needed to bring the measured effect to its halfway point.

Structures are written as SMILES. “Also recorded” adds a separate entry of the source. A value given as a limit tells only on which side of the number the result lay.

Consider three molecules from patent US12037350B2, “Compositions and methods for the prevention and/or treatment of mitochondrial disease, including Friedreich's ataxia” (Stealth BioTherapeutics Inc., priority 2020, dated 2024).

The test system of experiment [1] is HepG2 human hepatocarcinoma cells. Nature of the experiment: Rotenone ATP Assay (Complex I by-pass assay). Format: cell-based. The procedure: Example 13: Rotenone ATP Assay (a Complex I by-Pass Assay)
This assay has been adapted from Haefeli R H, Erb M, Gemperli A C, Robay D, Courdier Fruh I, et al. (2011) NQO1-Dependent Redox Cycling of Idebenone: Effects on Cellular Redox Potential and Energy Levels. PLoS ONE 6(3): e17963. HepG2 human hepatocarcinoma cells are co-incubated with the electron transport chain complex I toxin rotenone +/− compounds of interest and the corresponding effect on ATP synthesis is measured with a bioluminescent substrate.
The stock solutions of the test articles (See Table 1, below for a list of the test articles examined using this assay) were prepared in dimethyl sulfoxide (DMSO at 10 mM). Working stock solutions were prepared on the day of the experiment in glucose free, serum free Dulbecco's modified Eagles medium (DMEM) supplemented with 50 micromolar rotenone.
In brief, HepG2 cells were plated at 25,000 cells per well in low glucose (1 gram/Liter) DMEM medium+10% fetal calf serum and incubated for 24 hours. The following day, the media was decanted and subsequently replaced with glucose free/serum free DMEM which has been supplemented with 50 micromolar rotenone and compound of interest. Serial dilutions of compound were prepared in 3× dilutions beginning at 25 micromolar. The cells were incubated for 60 minutes in a humidified tissue culture incubator. Following incubation, ATP levels were quantified via bioluminescent assay (Promega […] Glo Assay kit) and readings were captured on a standard microplate reader.
ATP bioluminescence is plotted versus the log of compound of interest and data are used to generate EC50 values. Curve fitting is performed using a sigmoidal dose response curve fit function (GraphPad Prism software).
EC50 values were derived from seven-point dose response curves performed on n=3 technical replicates per dose. Robustness of curve fit was assessed as a quality control measure, with an R squared value of at least 0.80 being required for a successful curve fit. Compounds of interest showing an increase in ATP bioluminescence relative to vehicle control were verified in an independent biological replicate of n=3 technical replicates per dose.
This assay is a direct measure of the ability of compounds of interest to restore ATP production under conditions of inhibition of Complex I of the mitochondrial electron transport chain. As the majority of ATP produced via the electron transport chain is thought to derive from Complex I activity, significant impairment in Complex I function has dire biological consequences. Of note, Complex I mutations are thought to drive pathophysiology in multiple mitochondrial diseases, including Leigh syndrome and Leber's Hereditary Optic Neuropathy (LHON), while diminished Complex I activity and the resultant attenuation of ATP production has been shown in neurodegenerative diseases, including Friedreich's Ataxia, Parkinson's Disease and Huntington's Disease. In brief, most compounds were tested in the Rotenone Oxygraph Assay instead of this assay but only Idebenone was active amongst Omaveloxolone, Idebenone and Vatiquinone.

The test system of experiment [2] is GM03665 cells (fibroblasts from a subject with Friedreich's ataxia). Nature of the experiment: RSL-3 Toxicity Assay (RSL-3 Assay). Format: cell-based, human. The source says: Example 14: RSL-3 Toxicity Assay (RSL-3 Assay)
This assay has been adapted from: Hinman, A., Holst, C. R., Latham, J. C., Bruegger, J. J., Ulas, G., McCusker, K. P., Amagata, A., Davis, D., Hoff, K. G., Kahn-Kirby, A. H., Kim, V., Kosaka, Y., Lee, E., Malone, S. A., Mei, J. J., Richards, S. J., Rivera, V., Miller, G., Trimmer, J. K., Shrader, W. D., “Vitamin E hydroquinone is an endogenous regulator of ferroptosis via redox control of 15-lipoxygenase”, (2018) PLoS ONE 13(8): e0201369.
In brief, GM03665 cells (Coriell Institute) were seeded in 96-well plates (Sarstedt) in DMEM cell culture media containing 10% Fetal Bovine serum and 1% Penicillin-Streptomycin (Pen-Strep) antibiotic mix at the amount of 2×10^4/mL (100 μL or 2×10^3 cells per well). Cells were left to rest overnight at 37° C. in a humidified atmosphere with 5% CO2 to allow attachment of the cells to the culture plate. Test compounds were prepared as DMSO stocks (10 mM) and were serially diluted in cell culture media to obtain 2× working solutions. Cell media was discarded and replaced by 50 μL of test compound solutions or cell media with vehicle for control wells. Within 15 minutes, 2× working solution (4 μM) of 1S,3R-RSL-3 (CAS #1219810-16-8, Sigma-Aldrich) (diluted from 5 mM DMSO stock in cell culture media) was added. Final reaction volume was 100 μL and final DMSO concentration in reaction was kept below 0.2% (v/v) and equal in all wells. Final RSL-3 concentration was 2 μM and test compound final concentrations in reaction were up to 1000 nM. After 24 hours of incubation cell viability was assessed by MTT test. MTT (Sigma-Aldrich) solution 1 mg/mL in IX PBS (pH=7.4) was prepared 1 hour before the assay and filtered through Filtropur S 0.2 filters (Sarstedt). Cell media with test compounds was discarded and 100 μL of MTT solution was added to cells. The plates were incubated for 2 hours at +37° C. Thereafter, the MTT solution was removed and 100 μL of isopropanol was added to dissolve sediment. Absorption at 570 and 650 nm was measured using Hidex Sense microplate reader.
Compounds A and B and idebenone were not examined in this assay. The data presented in Table 1 indicates omaveloxolone was not active in this assay but that vatiquinone was active.
Discussion—Both BSO and RSL-3 are frequently utilized to induce the regulated cell death pathway known as ferroptosis. Ferroptosis is thought to require the joint activity of iron catalyzed oxidative stress and lipid peroxidation and has been described in cell and animal models of multiple neurodegenerative diseases, including Friedreich's Ataxia, Huntington Disease, Parkinson Disease and Alzheimer's Disease. […] Of note, the results for Compounds C-I and K were favorable with respect to inhibition of ferroptotic cell death when either BSO or RSL3 were used as initiating stimulus, differentiating these compounds from omaveloxolone and idebenone.

Another experiment deals with HepG2 cells. The experiment in a line: Rotenone Oxygraph Assay (high-resolution respirometry of intact HepG2 cells). It counts as cell-based, human. The procedure:
Example 15: Rotenone Oxygraph Assay (High-Resolution Respirometry of Intact HepG2 Cells)
The Oxygraph-2k (O2k, OROBOROS INSTRUMENTS, Austria) was used for measurements of respiration of intact cells. The respirometry was performed in Dulbecco's Modified Eagle Medium (DMEM) high glucose without supplements. All experiments were performed at 37° C.
HepG2 cells (ATCC collection code HB-8065™) were cultured in 10 cm^2 culture dishes in DMEM high glucose medium supplemented with 10% fetal bovine serum (FBS) and 100 units/mL penicillin and 100 μg/mL streptomycin until approximately 90% confluence was reached. Immediately prior to performing the respirometric assay, the cells were washed with media without FBS, trypsinized and resuspended in DMEM high glucose without FBS.
The final concentration of intact cells in the O2k-chamber was 0.5-10^6/mL. After stabilization of respiration, the Complex I inhibitor, rotenone, at 1 μM final concentration was added to inhibit electron flux via Complex I. Then, compound to be tested was added at 10 μM final concentration, and the change in respiration rate of intact cells was monitored. […]

The subject of experiment [3] is frataxin deficient fibroblasts (GM03665) from Friedreich's ataxia patient. Nature of the experiment: Frataxin Deficient Fibroblast Viability Assay (BSO Assay). Format: cell-based. The following applies: for EC50: Homo sapiens, Fibroblast, FA patient fibroblasts pretreated with compound, BSO 10 mM, MTT after 48 hrs. As for the experimental part:
Example 12: Frataxin Deficient Fibroblast Viability Assay (the “BSO Assay”)
This Example was used to evaluate the various new compositions for their potential efficacy in the treatment of Friedreich's Ataxia (FA or FRDA)—substantially as described in the above cited Reference (Matthias et al.).
The stock solutions of the test articles (and control compounds) were prepared in dimethyl sulfoxide (DMSO at 10 mM), Working stock solutions (2 times concentrated) were prepared on the day of the experiment in respective cell culture medium to be used for assay (detailed medium description below). A listing of compounds used as test articles in this Example 12 are found in Table 1, below.
A patient derived frataxin deficient fibroblast cell line was obtained from Coriell Institute. More specifically, the following cell lines/DNA samples were obtained from the NIGMS Human Genetic Cell Repository at the Coriell Institute for Medical Research: GM03665. To evaluate importance of various growth conditions on cell susceptibility to BSO toxicity cells were grown on:
MEM (Sigma-Aldrich) 15% Fetal Bovine Serum (FBS) without growth factors;
MEM (Sigma-Aldrich) 15% FBS with growth factors (Catalogue number 100-18B, Recombinant Human FGF-basic (154 a.a.) and catalogue number AF-100-15, Animal-Free Recombinant Human EGF from Peprotech);
MEM199/MEM EBS (Bioconcept Ltd.) 10% FBS, insulin 10 μg/ml, L-glutamine 2 mM with growth factors (Catalogue number 100-18B, Recombinant Human FGF-basic (154 a.a.) and catalogue number AF-100-15, Animal-Free Recombinant Human EGF from Peprotech).
To conduct an experiment, fibroblast cells (from all growth conditions) were seeded (100 μL (cells 3×10^3/well) on 96-well plates in MEM199/MEM EBS medium 10% FBS, insulin 10 μg/mL, L-glutamine 2 mM with growth factors and allowed to grow on plate for 24 hrs. After 24 hrs., media was removed and then test compounds of interest were added (100 μL, 2 times concentrated stock) to 96-well plates (end DM80 concentration not exceeding 0.5%) and incubated for 24 hours. Then L-buthionine-sulfoximine (BSO, from Acros Organics, Cat. No. 235520010) was added (100 μL, 2 times concentrated stock) at end concentrations ranging from 1 to 10 mM. Both test compounds and BSO were dissolved in MEM199/MEM EBS medium 10% FBS, insulin 10 μg/mL, L-glutamine 2 mM with growth factors. Cell viability was monitored and either after 24- or 48-hours cell viability was assayed by MTT (Thiazolyl blue tetrazolium bromide) assay. For the MTT assay, media was removed and 100 μL of MTT 1 mg/mL was added, incubated for 2 hours at +37° C., then medium was removed and 100 μL of isopropanol added to dissolve sediment. Absorption was measured at 570 (OD570) and 650 (QD650) nm wavelengths. Control cells (vehicle instead of BSO and compound) and vehicle control (with BSO, but vehicle instead of test compound) were treated in the same manner as ceils with BSO and compound. All cell media contained penicillin and streptomycin 100 U/mL each.
Absorption readouts were processed as follows: ValueΔ=ValueOD570−ValueOD650 and the obtained values were used to calculate cell viability as % of control cell (i.e., no BSO, no compound, just vehicle) viability.
Except as otherwise indicated in Table 1, all samples were run in at least 3 replicates for test compounds and at least 8 replicates for controls (i.e., both control (no BSO, no compound) and vehicle control (i.e., with BSO, no compound). Exact N per data points are indicated in the figures/table legends. Results for the compounds (test articles and controls) tested are listed in Table 1, below.
This is a cell-based assay measuring cytotoxicity which results from oxidative stress subsequent to depletion of endogenous glutathione defense mechanisms. The cells were primary Friedreich Ataxia (FA) patient fibroblasts which were incubated for 48 hrs. in BSO, an inhibitor of gamma glutamyl synthetase, an enzyme required for glutathione production. […]

As to `CC(C)=CCC/C(C)=C/CC/C(C)=C/CC[C@@](C)(O)CCC1=C(C)C(=O)C(C)=C(C)C1=O` [Vatiquinone, reference compound], in experiment [1], the “Complex I by-pass activity in Rotenone ATP Assay (in words)” value is “inactive”. In addition, the “ATP Rotenone Assay EC50” value in experiment [1] (HepG2, 50 micromolar rotenone, 60 minutes, ATP bioluminescence) is “Inactive”. Also, in experiment [2], the “protection against RSL-3 toxicity (in words)” value is on record as “active”. This molecule also returned an EC50 in experiment [2] (Homo sapiens, Fibroblast, GM03665 cells, RSL-3 2 μM, 24 hours, MTT) of 0.056 µM. Further, the “Complex I by-pass activity in Rotenone Oxygraph Assay (in words)” value with HepG2 cells is “inactive”. Besides, the “Rotenone Oxygraph Assay % Increase” value in the experiment on HepG2 cells (intact HepG2 cells, rotenone 1 μM, compound 10 μM, increase in respiration rate) is reported as “Inactive”.

Turning to `COC1=C(OC)C(=O)C(C/C=C(\C)CC/C=C(\C)CCC=C(F)F)=C(C)C1=O` [Compound B, 2-((2E,6E)-11,11-difluoro-3,7-dimethylundeca-2,6,10-trien-1-yl)-5,6-dimethoxy-3-methylcyclohexa-2,5-diene-1,4-dione], the “Complex I by-pass activity in Rotenone ATP Assay (in words)” value in experiment [1] is recorded as “comparable to that of Idebenone”. The concentration for a half-maximal effect (EC50) in experiment [1] (Homo sapiens, 1 h, HepG2, 50 micromolar rotenone, 60 minutes, ATP bioluminescence) was 1.02 µM; in experiment [3], 0.199 µM.

In the case of `COC1=C(OC)C(=O)C(CCCCCCCCCCO)=C(C)C1=O` [Idebenone, reference compound], the “Complex I by-pass activity in Rotenone ATP Assay (in words)” value in experiment [1] was “active”. The “protection against BSO induced cell death (in words)” value in experiment [3] (BSO Assay, text statement) is “not really very protective at all; also recorded: only very weakly active”. For the same molecule, in experiment [3], the EC50 is greater than 1 µM. In the experiment on HepG2 cells, the “Complex I by-pass activity in Rotenone Oxygraph Assay (in words)” value was “active”. The same molecule registered an activation at 10 µM in the experiment with HepG2 cells (Homo sapiens, intact HepG2 cells, rotenone 1 μM, compound 10 μM, increase in respiration rate) of 70.2%.
